In patent US20120065187A1 (ALCON RESEARCH, LTD, priority 2008, published 2012):
Structures can show the parent of a compound that is named as a salt.

Tests used:
human H1 = molecular target: T1, human H1 (Homo sapiens, UniProt P35367); assay: In vitro histamine receptor cell-based assay (aequorin bioluminescence), H1 antagonism; conditions: CHO-K1 cells expressing human H1 and aequorin; histamine at EC80; read-out: H1 Antagonist EC50
T1 construct: host or cells: CHO-K1
Method: (§1) The cell-based assays utilize an aequorin dependent bioluminescence signal. Doubly-transfected, stable CHO-K1 cell lines expressing human H1 or H4, mitochondrion-targeted aequorin, and (H4 only) human G protein Gα16 are obtained from Perkin-Elmer. Cells are maintained in F12 (Ham's) growth medium, containing 10% (vol./vol.) fetal bovine serum, penicillin (100 IU/mL), streptomycin (0.1 mg/mL), zeocin (0.25 mg/mL) and geneticin (0.40 mg/mL). Cell media components are from Invitrogen, Inc. One day prior to assay, the growth medium is replaced with the same, excluding zeocin and geneticin.
(§2) For assay preparation, growth medium is aspirated, and cells are rinsed with calcium-free, magnesium-free phosphate-buffered saline, followed by two to three minute incubation in Versene (Invitrogen, Inc.) at 37° C. Assay medium (DMEM:F12 [50:50], phenol-red free, containing 1 mg/mL protease-free bovine serum albumin) is added to collect the released cells, which are then centrifuged. The cell pellet is re-suspended in assay medium, centrifuged once more, and re-suspended in assay medium to a final density of 5×10^6 cells/mL. Coelenterazine-h dye (500 μM in ethanol) is added to a final concentration of 5 μM, and mixed immediately. The conical tube containing the cells is then wrapped with foil to protect the light-sensitive dye. The cells are incubated for four hours further at room temperature (approximately 21° C.) with end-over-end rotation to keep them in suspension.
(§3) Just before assay, the dye-loaded cells are diluted to 0.75×10^6 cells/mL (H1 receptor) or 1.5×10^6 cells/mL (H4 receptor) with additional assay medium. Cells are dispensed to 1536 well micro-titer plates at 3 μL/well. To assay receptor antagonism, 60 nl of 100× concentration test compounds in 100% dimethyl sulfoxide (DMSO) are dispensed to the wells, one compound per well, by passive pin transfer, and the plates are incubated for 15 minutes at room temperature. Assay plates are then transferred to a Lumilux bioluminescence plate reader (Perkin-Elmer) equipped with an automated 1536 disposable tip pipette. The pipette dispenses 3 μL/well of agonist (histamine, at twice the final concentration, where final concentration is a previously determined EC80) in assay medium, with concurrent bioluminescence detection. Agonist activity of test compounds is excluded by separate assays that measure response to test compounds immediately, without added histamine agonist.
(§4) CCD image capture on the Lumilux includes a 5 second baseline read prior to agonist addition, and generally a 40 second read per plate after agonist addition. A decrease in bioluminescence signal (measured either as area-under-the-curve, or maximum signal amplitude minus minimum signal amplitude) correlates with receptor antagonism in a dose dependent manner. The negative control is DMSO lacking any test compound. For antagonist assays, the positive controls are diphenhydramine (2-Diphenylmethoxy-N,N-dimethylethylamine, 10 μM final concentration, H1 receptor) or JNJ7777120 (1-[(5-Chloro-1H-indol-2-yl)carbonyl]-4-methyl-piperazine, 10 μM final concentration, H4 receptor). Efficacy is measured as a percentage of positive control activity.

human H4 = molecular target: T2, human H4 (Homo sapiens, UniProt Q9H3N8); assay: In vitro histamine receptor cell-based assay (aequorin bioluminescence), H4 antagonism; conditions: CHO-K1 cells expressing human H4, aequorin and Gα16; histamine at EC80; read-out: H4 Antagonist EC50
T2 construct: host or cells: CHO-K1
Method: as §1, §2
as §3, with “Assay plates are then transferred to a Lumilux bioluminescence plate reader (Perkin-Elmer) equipped with an automated 1536 disposable tip pipette.” left out
as §4

T1 sequence (P35367 whole entry): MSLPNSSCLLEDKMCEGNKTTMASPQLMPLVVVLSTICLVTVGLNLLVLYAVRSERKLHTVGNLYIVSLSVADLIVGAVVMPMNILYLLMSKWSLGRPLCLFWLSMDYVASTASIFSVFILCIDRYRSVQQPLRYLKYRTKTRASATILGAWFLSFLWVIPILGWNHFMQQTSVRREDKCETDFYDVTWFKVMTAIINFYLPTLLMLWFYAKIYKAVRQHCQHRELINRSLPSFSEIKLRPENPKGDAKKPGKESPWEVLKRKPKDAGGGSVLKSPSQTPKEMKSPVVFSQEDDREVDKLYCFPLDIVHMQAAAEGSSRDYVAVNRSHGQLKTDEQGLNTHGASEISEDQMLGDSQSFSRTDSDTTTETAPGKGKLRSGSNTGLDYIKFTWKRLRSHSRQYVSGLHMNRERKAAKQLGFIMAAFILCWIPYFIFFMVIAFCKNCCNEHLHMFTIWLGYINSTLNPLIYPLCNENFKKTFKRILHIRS

EC50 (human H1) [µM] | EC50 (human H4) [µM] | SMILES
> 10 | > 10 | Clc1ccc2nc(C3CCNCC3)c3nncn3c2c1 [Example 3, 8-Chloro-4-(piperidin-4-yl)-[1,2,4]triazolo[4,3-a]quinoxaline]
> 10 | < 10 | CN1CCC(c2nc3ccc(Cl)cc3n3cnnc23)CC1 [Example 4, 8-Chloro-4-(1-methylpiperidin-4-yl)-[1,2,4]triazolo[4,3-a]quinoxaline]
> 10 | < 10 | CN1CCN(C2=Nc3ccc(Cl)cc3N3CCN=C23)CC1 [Example 5, 8-Chloro-4-(4-methylpiperazin-1-yl)-1,2-dihydroimidazo[1,2-a]quinoxaline]
> 10 | < 10 | Clc1ccc2c(c1)N1CCN=C1C(N1CCNCC1)=N2 [Example 6, 8-Chloro-4-(piperazin-1-yl)-1,2-dihydroimidazo[1,2-a]quinoxaline]
> 10 | < 10 | Clc1ccc2nc(N3CCNCC3)c3nccn3c2c1 [Example 8, 8-Chloro-4-(piperazin-1-yl)imidazo[1,2-a]quinoxaline]
> 10 | < 10 | Cc1cn2c(n1)c(N1CCN(C)CC1)nc1ccc(Cl)cc12 [Example 9, 8-Chloro-2-methyl-4-(4-methylpiperazin-1-yl)imidazo[1,2-a]quinoxaline]
> 10 | > 10 | Cc1cn2c(n1)c(N1CCNCC1)nc1ccc(Cl)cc12 [Example 10, 8-Chloro-2-methyl-4-(piperazin-1-yl)imidazo[1,2-a]quinoxaline]
> 10 | < 10 | Cc1cn2c(n1)c(N1CCN(C)CC1)nc1cc(Cl)ccc12 [Example 11, 7-Chloro-2-methyl-4-(4-methylpiperazin-1-yl)imidazo[1,2-a]quinoxaline]
> 10 | < 10 | Clc1ccc2nc(N3CCNCC3)n3nnnc3c2c1 [Example 12, 9-Chloro-5-(piperazin-1-yl)tetrazolo[1,5-c]quinazoline]
> 10 | < 10 | CN1CCN(c2nc3ccc(Cl)cc3c3nnnn23)CC1 [Example 13, 9-chloro-5-(4-methylpiperazin-1-yl)tetrazolo[1,5-c]quinazoline]
< 10 | > 10 | CN1CCN(c2nc3ccc(Cl)cc3c3nncn23)CC1 [Example 14, 9-chloro-5-(4-methylpiperazin-1-yl)-[1,2,4]triazolo[4,3-c]quinazoline]
> 10 | < 10 | Cc1ccc2nc(N3CCN(C)CC3)c3nnnn3c2c1 [Example 15, 8-methyl-4-(4-methylpiperazin-1-yl)tetrazolo[1,5-a]quinoxaline]
> 10 | < 10 | Clc1ccc2c(c1)nc(N1CCNCC1)c1nnnn12 [Example 16, 7-Chloro-4-(piperazin-1-yl)tetrazolo[1,5-a]quinoxaline]
> 10 | < 10 | CN1CCN(c2nc3cc(Cl)ccc3n3nnnc23)CC1 [Example 17, 7-Chloro-4-(4-methylpiperazin-1-yl)tetrazolo[1,5-a]quinoxaline]
> 10 | < 10 | Cc1ccc2nc(N3CCNCC3)c3nnnn3c2c1 [Example 18, 8-Methyl-4-(piperazin-1-yl)tetrazolo[1,5-a]quinoxaline]
> 10 | < 10 | Cc1ccc2nc(N3CCNCC3)c3nncn3c2c1 [Example 22, 8-Methyl-4-(piperazin-1-yl)-[1,2,4]triazolo[4,3-a]quinoxaline]
> 10 | < 10 | CN1CCN(c2nc3cc(C(F)(F)F)ccc3n3cnnc23)CC1 [Example 25, 4-(4-methylpiperazin-1-yl)-7-(trifluoromethyl)-[1,2,4]triazolo[4,3-a]quinoxaline]
> 10 | > 10 | FC(F)(F)c1ccc2c(c1)nc(N1CCNCC1)c1nncn12 [Example 26, 4-(piperazin-1-yl)-7-(trifluoromethyl)-[1,2,4]triazolo[4,3-a]quinoxaline]
> 10 | < 10 | CN1CCN(c2nc3cc(C(F)(F)F)ccc3n3nnnc23)CC1 [Example 28, 4-(4-methylpiperazin-1-yl)-7-(trifluoromethyl)tetrazolo[1,5-a]quinoxaline]
> 10 | < 10 | FC(F)(F)c1ccc2c(c1)nc(N1CCNCC1)c1nnnn12 [Example 30, 4-(piperazin-1-yl)-7-(trifluoromethyl)tetrazolo[1,5-a]quinoxaline hydrochloride]
> 10 | < 10 | CN1CCN(c2nc3cc(Cl)c(F)cc3n3cnnc23)CC1 [Example 33, 7-chloro-8-fluoro-4-(4-methylpiperazin-1-yl)-[1,2,4]triazolo[4,3-a]quinoxaline]
> 10 | < 10 | Cc1cc2c(cc1F)nc(N1CCN(C)CC1)c1nncn12 [Example 34, 7-fluoro-8-methyl-4-(4-methylpiperazin-1-yl)-[1,2,4]triazolo[4,3-a]quinoxaline]
> 10 | > 10 | Cc1cc2c(cc1F)nc(N1CCNCC1)c1nncn12 [Example 35]
> 10 | < 10 | Cc1cc2nc(N3CCN(C)CC3)c3nncn3c2cc1F [Example 36, 8-fluoro-7-methyl-4-(4-methylpiperazin-1-yl)-[1,2,4]triazolo[4,3-a]quinoxaline]
> 10 | < 10 | Fc1cc2nc(N3CCNCC3)c3nncn3c2cc1F [Example 38, 7,8-difluoro-4-(piperazin-1-yl)-[1,2,4]triazolo[4,3-a]quinoxaline]
> 10 | < 10 | CN1CCN(c2nc3cc(C(F)(F)F)c(F)cc3n3cnnc23)CC1 [Example 42, 8-fluoro-4-(4-methylpiperazin-1-yl)-7-(trifluoromethyl)-[1,2,4]triazolo[4,3-a]quinoxaline]
> 10 | < 10 | Fc1cc2c(cc1C(F)(F)F)nc(N1CCNCC1)c1nncn12 [Example 43, 8-Fluoro-4-(piperazin-1-yl)-7-(trifluoromethyl)-[1,2,4]triazolo[4,3-a]quinoxaline]
> 10 | < 10 | CN1CCN(c2nc3cc(Cl)c(C(F)(F)F)cc3n3cnnc23)CC1 [Example 44, 7-Chloro-4-(4-methylpiperazin-1-yl)-8-(trifluoromethyl)-[1,2,4]triazolo[4,3-a]quinoxaline]
> 10 | < 10 | CN1CCN(c2nc3cc(C(F)(F)F)c(Cl)cc3n3cnnc23)CC1 [Example 46, 8-Chloro-4-(4-methylpiperazin-1-yl)-7-(trifluoromethyl)-[1,2,4]triazolo[4,3-a]quinoxaline]

SMILES | EC50 (human H1) [µM] | EC50 (human H4) [µM]
Clc1ccc2nc(C3=CCNCC3)c3nncn3c2c1 [Example 1, 8-chloro-4-(1,2,3,6-tetrahydropyridin-4-yl)-[1,2,4]triazolo[4,3-a]quinoxaline] | > 10 | > 10
CN1CC=C(c2nc3ccc(Cl)cc3n3cnnc23)CC1 [Example 2, 8-Chloro-4-(1-methyl-1,2,3,6-tetrahydropyridin-4-yl)-[1,2,4]triazolo[4,3-a]quinoxaline] | > 10 | < 10
FC(F)(F)c1ccc2nc(N3CCNCC3)c3nocc3c2c1 [Example 219, 4-piperazinyl-8-(trifluoromethyl)isoxazolo[3,4-c]quinoline] | > 10 | 
